Experimental data as given in patent US7910746B2, “Haloalkyl carboxamides” (Bayer CropScience AG, priority 2004, dated 2011).

Assays:
Venturia inaequalis = assay: Venturia test (apple)/protective; format: in vivo; settings: protective, application rate 100 g/ha, evaluation ten days after inoculation
Procedure: Venturia Test (Apple)/Protective Solvent: • 24.5 parts by weight acetone • 24.5 parts by weight dimethyl acetamide Emulsifier: 1 part by weight alkyl aryl polyglycol ether To produce an appropriate active ingredient preparation, one part by weight of the active substance is mixed with the specified quantities of solvent and emulsifying agent, and the concentrate is diluted with water to the desired concentration. Young plants are sprayed with the active ingredient preparation at the specified application rate to test the effectiveness of protection. After the sprayed coating has dried, the plants are inoculated with an aqueous conidia suspension of the apple scab pathogen Venturia inaequalis and are then kept in an incubator at 20° C. and 100% relatively humidity for one day. Then the plants are placed in the greenhouse at about 21° C. with relative humidity of about 90%. The evaluation is performed ten days after the inoculation. A degree of effectiveness rating of 0% corresponds to the control, with 100% indicating no infestation observed.

Alternaria solani = assay: Alternaria test (tomato)/protective; format: in vivo; settings: protective, application rate 750 g/ha, evaluation seven days after inoculation
Procedure: Alternaria Test (Tomato)/Protective Solvent: 49 parts by weight N,N-dimethyl formamide Emulsifier: 1 part by weight alkyl aryl polyglycol ether To produce an appropriate active ingredient preparation, one part by weight of the active substance is mixed with the specified quantities of solvent and emulsifying agent, and the concentrate is diluted with water to the desired concentration. Young tomato plants are sprayed with the active ingredient preparation at the specified application rate to test the effectiveness of protection. One day after treatment, the plants are inoculated with a spore suspension of Alternaria solani and are kept for 24 hours at 100% relatively humidity and 20° C. Subsequently, the plants are kept at 96% relatively humidity and a temperature of 20° C. The evaluation is performed seven days after the inoculation. A degree of effectiveness rating of 0% corresponds to the control, with 100% indicating no infestation observed.

[1] = log P by HPLC on reverse phase column (C18), acid range; format: physicochemical; settings: pH 2.3, HPLC C18, 43° C.
Procedure: The specified log P values are determined by HPLC on a reverse phase column (C18) in accordance with EEC Directive 79/831 Annex V.A8. Temperature: 43° C. Eluents for the measurement in the acid range (pH 2.3): 0.1% aqueous phosphoric acid, acetonitrile; linearer gradient of 10% acetonitrile to 90% acetonitrile. Calibration is performed with unbranched alkyl-2-ones (with 3 to 16 carbon atoms) with known log P values (determination of the log P values based on retention times by linear interpolation between two sequential alkyl ketones).

Sphaerotheca fuliginea = assay: Sphaerotheca test (cucumber)/protective; format: in vivo; settings: protective, application rate 100 g/ha, evaluation seven days after inoculation
Procedure: Sphaerotheca Test (Cucumber)/Protective Solvent: • 24.5 parts by weight acetone • 24.5 parts by weight dimethyl acetamide Emulsifier: 1 part by weight alkyl aryl polyglycol ether To produce an appropriate active ingredient preparation, one part by weight of the active substance is mixed with the specified quantities of solvent and emulsifying agent, and the concentrate is diluted with water to the desired concentration. Young plants are sprayed with the active ingredient preparation at the specified application rate to test the effectiveness of protection. After the sprayed coating has dried, the plants are inoculated with an aqueous spore suspension of Sphaerotheca fuliginea. Then the plants are placed in the greenhouse at about 23° C. with relative humidity of about 70%. The evaluation is performed seven days after the inoculation. A degree of effectiveness rating of 0% corresponds to the control, with 100% indicating no infestation observed.

Botrytis cinerea = assay: Botrytis test (bean)/protective; format: in vivo; settings: protective, application rate 500 g/ha, evaluation two days after inoculation
Procedure: Botrytis Test (Bean)/Protective Solvent: • 24.5 parts by weight acetone • 24.5 parts by weight dimethyl acetamide Emulsifier: 1 part by weight alkyl aryl polyglycol ether To produce an appropriate active ingredient preparation, one part by weight of the active substance is mixed with the specified quantities of solvent and emulsifying agent, and the concentrate is diluted with water to the desired concentration. Young plants are sprayed with the active ingredient preparation at the specified application rate to test the effectiveness of protection. After the sprayed coating has dried, two small pieces of agar with cultured Botrytis cinerea are placed on each leaf. The inoculated plants are placed in a darkened chamber at about 20° C. and 100% relatively humidity. Two days after the inoculation, the size of the infestation spots on the leaves is evaluated. A degree of effectiveness rating of 0% corresponds to the control, with 100% indicating no infestation observed.

Puccinia recondita = assay: Puccinia test (wheat)/protective; format: in vivo; settings: protective, application rate 500 g/ha, evaluation ten days after inoculation
Procedure: Puccinia Test (Wheat)/Protective Solvent: 50 parts by weight N,N-dimethyl acetamide Emulsifier: 1 part by weight alkyl aryl polyglycol ether To produce an appropriate active ingredient preparation, one part by weight of the active substance is mixed with the specified quantities of solvent and emulsifying agent, and the concentrate is diluted with water to the desired concentration. Young plants are sprayed with the active ingredient preparation at the specified application rate to test the effectiveness of protection. After the sprayed coating has dried, the plants are sprayed with a conidia suspension of Puccinia recondita. The plants are kept in an incubator at 20° C. and 100% relatively humidity for 48 hours. Then the plants are placed in a greenhouse at a temperature of about 20° C. and a relatively humidity of 80%, in order to promote the development of rust spots. The evaluation is performed ten days after the inoculation. A degree of effectiveness rating of 0% corresponds to the control, with 100% indicating no infestation observed.

Q: Which “Degree of effectiveness in %” value (Venturia inaequalis) does the source give for `CC(CCc1cc(Cl)ccc1NC(=O)c1cn(C)nc1C(F)F)C(F)(F)F` (stereo not drawn) here?
A: 93%

Q: For `Cc1nn(C)c(F)c1C(=O)Nc1ccc(Cl)cc1CCC(C)C(F)(F)F` (stereo not drawn), which “Degree of effectiveness in %” value (Alternaria solani) is on record?
A: 90%

Q: For `CC(CCc1cc(Cl)ccc1NC(=O)c1ccccc1C(F)(F)F)C(F)(F)F` (stereo not drawn) [Example 1, N-[4-chloro-2-(4,4,4-trifluoro-3-methylbutyl)-phenyl]-2-trifluoromethylbenzamide], which chromatographic logP [1] is on record?
A: 4.08

Q: For `CC(CCc1ccccc1NC(=O)c1cn(C)nc1C(F)F)C(F)(F)F` (stereo not drawn) [Example 2, 3-difluoromethyl-1-methyl-1H-pyrazole-4-carboxyic acid, [2-(4,4,4-trifluoro-3-methylbutyl)-phenyl]-amide], which chromatographic logP [1] is on record?
A: 2.93

Q: For `CCC(Cl)CC(C)c1ccccc1NC(=O)c1c(C)nn(C)c1F` (stereo not drawn) [drawing 80], which “Degree of effectiveness in %” value (Sphaerotheca fuliginea) is on record?
A: 95%

Q: For `CCC(Cl)CC(C)c1ccccc1NC(=O)c1cn(C)nc1C(F)F` (stereo not drawn) [drawing 81], which “Degree of effectiveness in %” value (Sphaerotheca fuliginea) is on record?
A: 100%

Q: With `Cc1nn(C)c(F)c1C(=O)Nc1ccccc1CCC(C)C(F)(F)F` (stereo not drawn) [drawing 82] as the compound, how does the “Degree of effectiveness in %” value (Sphaerotheca fuliginea) read?
A: 100%

Q: Which “Degree of effectiveness in %” value (Sphaerotheca fuliginea) does the source give for `CC(CCc1ccccc1NC(=O)c1cn(C)nc1C(F)F)C(F)(F)F` (stereo not drawn) [drawing 83] here?
A: 98%

Q: Which “Degree of effectiveness in %” value (Venturia inaequalis) does the source give for `CCC(Cl)CC(C)c1ccccc1NC(=O)c1c(C)nn(C)c1F` (stereo not drawn) [drawing 85] here?
A: 100%

Q: For `CCC(Cl)CC(C)c1ccccc1NC(=O)c1cn(C)nc1C(F)F` (stereo not drawn) [drawing 86], which “Degree of effectiveness in %” value (Venturia inaequalis) is on record?
A: 100%

Q: For `CC(CCc1ccccc1NC(=O)c1ccccc1I)C(F)(F)F` (stereo not drawn) [drawing 87], which “Degree of effectiveness in %” value (Venturia inaequalis) is on record?
A: 94%

Q: Which “Degree of effectiveness in %” value (Venturia inaequalis) does the source give for `Cc1nn(C)c(F)c1C(=O)Nc1ccccc1CCC(C)C(F)(F)F` (stereo not drawn) [drawing 88] here?
A: 94%

Q: With `CC(CCc1ccccc1NC(=O)c1cn(C)nc1C(F)F)C(F)(F)F` (stereo not drawn) [drawing 89] as the compound, how does the “Degree of effectiveness in %” value (Venturia inaequalis) read?
A: 97%

Q: For `CCC(Cl)CC(C)c1ccccc1NC(=O)c1c(C)nn(C)c1F` (stereo not drawn) [drawing 90], which “Degree of effectiveness in %” value (Botrytis cinerea) is on record?
A: 82%

Q: With `CCC(Cl)CC(C)c1ccccc1NC(=O)c1cn(C)nc1C(F)F` (stereo not drawn) [drawing 91] as the compound, how does the “Degree of effectiveness in %” value (Botrytis cinerea) read?
A: 100%

Q: For `CC(CCc1ccccc1NC(=O)c1cn(C)nc1C(F)F)C(F)(F)F` (stereo not drawn) [drawing 92], which “Degree of effectiveness in %” value (Botrytis cinerea) is on record?
A: 99%

Q: Which “Degree of effectiveness in %” value (Puccinia recondita) does the source give for `CCC(Cl)CC(C)c1ccccc1NC(=O)c1cn(C)nc1C(F)F` (stereo not drawn) [drawing 93] here?
A: 100%

Q: For `CC(CCc1ccccc1NC(=O)c1ccccc1I)C(F)(F)F` (stereo not drawn) [drawing 94], which “Degree of effectiveness in %” value (Puccinia recondita) is on record?
A: 100%

Q: Which “Degree of effectiveness in %” value (Puccinia recondita) does the source give for `CC(CCc1ccccc1NC(=O)c1cn(C)nc1C(F)F)C(F)(F)F` (stereo not drawn) [drawing 95] here?
A: 100%

Q: With `CCC(Cl)CC(C)c1ccccc1NC(=O)c1c(C)nn(C)c1F` (stereo not drawn) [drawing 97] as the compound, how does the “Degree of effectiveness in %” value (Alternaria solani) read?
A: 100%

Q: With `CCC(Cl)CC(C)c1ccccc1NC(=O)c1cn(C)nc1C(F)F` (stereo not drawn) [drawing 98] as the compound, how does the “Degree of effectiveness in %” value (Alternaria solani) read?
A: 95%
